Data on 6 compounds can be found in paper PMC9544318, “Advanced Pyrrolidine‐Carbamate Self‐Immolative Spacer with Tertiary Amine Handle Induces Superfast Cyclative Drug Release” (Chemmedchem, 2022).

What all share (format): physicochemical
Data set [1] can be described thus: Carbamate cleavage study of SI spacer-CPT modules (CPT release by HPLC). Particulars: for half-life at 1 mM: CPT release by HPLC, read-out: carbamate half-life (t1/2) (converted). The text has this: We undertook the structural optimization of the pyrrolidine‐carbamate SI spacer Sp2, aimed at decreasing the carbamate half‐life (t 1/2) for a faster hydroxy cargo release. The molecular structures of the synthesized SI spacers are reported in Figure 2 (all synthetic procedures are reported in the Supporting Information). Here, the Sp2 pyrrolidine ring was replaced by either a piperidine (in Sp4) or an isoxazolidine (in Sp5) cycle. In particular, Sp4 was designed to assess the impact of the cyclic amine ring size on the SI spacer degradation.[20] On the other hand, the use of an isoxazolidine ring in Sp5 aimed at evaluating the contribution of the “α‐effect” to the spacer reactivity.[21] While Sp4 was prepared starting from racemic 2‐piperidinecarbaldehyde, the synthesis of Sp5 was inspired by Bode's route to 5‐oxaproline.[22] Moreover, as we recently observed the inhibitory effects on the spacer cyclization given by a phosphate monoester group,[23] we devised the SI spacer modification with a basic handle. Since at physiological pH (approximately 7.4) the pyrrolidine is mostly present as protonated species, a second amine handle may force the pyrrolidine deprotonation, thus lowering its pK a value and increasing its nucleophilic character.[24] To this end, SI spacers Sp3 and Sp6/8 were endowed with a tertiary amine handle connected either at the carbamate N atom (in Sp3 and Sp7) or at the pyrrolidine ring (in Sp6 and Sp8). While the former spacers were rapidly obtained by reductive amination of Boc‐L‐prolinal, the latter were prepared by multistep synthesis, starting from oxygenated proline derivatives, such as 4‐oxo‐L‐proline and hydroxyproline. Firstly, the exocyclic secondary amine of SI spacers Sp3/8 was conjugated to the tertiary hydroxy group of the anticancer drug Camptothecin (CPT) via carbamate bond. As described recently,[19, 23] the final spacer‐drug modules Sp3/8‐CPT (Figure 2) were isolated as trifluoroacetate salts. These compounds were dissolved in a DMSO/phosphate buffer (pH 7.5) mixture and incubated at 37 °C, followed by aliquot collection at different time points and CPT release analysis by HPLC. The percentage of intact carbamate calculated from peak integrals was plotted versus time, and the spacer cyclization rates were estimated in terms of carbamate half‐life (t 1/2).
Carbamate Cleavage Studies
Experimental Procedure for Sp-CPT Modules
Stock solutions of lyophilized SI spacer-CPT modules (concentration: 10 mM in DMSO) were diluted 1:10 (final concentration: 1 mM) with 25 mM phosphate buffer (pH 7.4). Immediately after preparation, the mixtures were incubated at 37 °C. Aliquots were collected at different time points and diluted 1:4 (final concentration: 250 μ M) with a blocking buffer (8:2 H2O/CH3CN + 0.2% TFA).
The diluted aliquots were injected into an analytical HPLC-PDA system (see Materials and Methods), using the following parameters: […]
Gradient From 10% B to 50% B in 26 min.
Areas under the curve (AUC) of the detected peaks were measured using software associated to the HPLC systems. The rate of free OH release from the starting carbamate were obtained by calculating the relative ratios of AUC values corresponding to the amine -bearing prodrug and the free payload. Data were plotted versus time and half-lives (t1/2) were calculated by non -linear fitting (exponential, one-phase decay) using GraphPad Prism software .
(1 picture or pasted object on this page, not shown here)

Data set [2] is described as follows: CPT release under acidic conditions (acetate buffer, pH 5) mimicking the lysosomal compartment. As to conditions: for carbamate stability under acidic conditions: compared with pH 7.5. On the procedure:
[26] The release of free CPT was also studied upon Sp2-CPT and Sp3-CPT incubation under more acidic conditions (acetate buffer, pH 5), mimicking the lysosomal compartment.

The nature of data set [3]: Solubility observed in aqueous buffer/DMSO mixture of the release study. On the procedure: [25] The stability of carbamate Sp4-CPT may be ascribed to a suboptimal conformation of the piperidine spacer compared to the native pyrrolidine. […] The stability of Sp5-CPT was also analysed in a phosphate buffer solution at pH 7.5, with DMSO content increased to 20 % DMSO.
Where [4] appears, read: DMSO/phosphate buffer (pH 7.5), 37 °C.

As for `CC[C@@]1(OC(=O)N(CCN(C)C)C[C@@H]2CCCN2)C(=O)OCc2c1cc1n(c2=O)Cc2cc3ccccc3nc2-1` [Sp3-CPT], in data set [1] (setting [4]), the “half-life compared with reference Sp2-CPT” value is reported as “four times shorter” and the half-life at 1 mM was 0.9 h. Also, the “drug release activity under acidic conditions” value in data set [2] (compared with Sp2 reference) is “consistently higher drug release activity than the Sp2 reference”. Also, the “carbamate stability under acidic conditions” value in data set [2] was “much more stable”.
`CC[C@@]1(OC(=O)N(C)C[C@@H]2CCON2)C(=O)OCc2c1cc1n(c2=O)Cc2cc3ccccc3nc2-1` [Sp5-CPT]: in data set [1] (setting [4]), the “cyclative carbamate cleavage (CPT release)” value is “complete inhibition of the cyclative carbamate cleavage”. Also, the CPT release result in data set [1] (phosphate buffer pH 7.5, 20 % DMSO) is recorded as “no CPT release was observed”. Also, the solubility result in data set [3] (9 : 1 aqueous buffer/DMSO mixture, pH 7.5) is recorded as “partially insoluble”; in data set [3] (phosphate buffer pH 7.5, DMSO content increased to 20 %), “perfectly soluble”.
`CC[C@@]1(OC(=O)N(CCCN(C)C)C[C@@H]2CCCN2)C(=O)OCc2c1cc1n(c2=O)Cc2cc3ccccc3nc2-1` [Sp7-CPT]: the half-life at 1 mM in data set [1] (setting [4]) was 3.3 h.
Take `CC[C@@]1(OC(=O)N(C)C[C@@H]2C[C@H](N(C)C)CN2)C(=O)OCc2c1cc1n(c2=O)Cc2cc3ccccc3nc2-1` [Sp6-CPT]: the half-life at 1 mM in data set [1] (setting [4]) is 5.5 h.
In the case of `CC[C@@]1(OC(=O)N(C)C[C@@H]2CCCN2)C(=O)OCc2c1cc1n(c2=O)Cc2cc3ccccc3nc2-1` [Sp2-CPT, reference compound], in data set [1] (setting [4]), the half-life at 1 mM was 3.6 h. The “carbamate stability under acidic conditions” value in data set [2] is given as “much more stable”.
As for `CC[C@@]1(OC(=O)N(C)C[C@@H]2C[C@@H](OCCN(C)C)CN2)C(=O)OCc2c1cc1n(c2=O)Cc2cc3ccccc3nc2-1` [Sp8-CPT], in data set [1] (setting [4]), the half-life at 1 mM was 3.2 h.
